These results are taken from PubChem BioAssay AID179 (DTP/NCI, 2004).

Active and inactive are the calls of the source.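 The calls were made as follows: active = compounds giving half or more protection of infected cells from virus-caused growth loss, again on retest; inactive = the rest.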 Where a SMILES comes first, the peptide text is derived from it.

The assay concerns CEM cells HIV-1 protection, formazan growth assay. As to the kind of experiment: NCI AIDS Antiviral Assay. Conditions: for IC50: measured here: growth of uninfected CEM cells. Summed up: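 Soluble formazan readout of cell growth; CEM cells ± HIV-1; 5 drug concs. ≥50% protection → retest; ≥50% again = moderately active; reproducible 100% = confirmed active.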

For `Cc1ccc(C(=O)/C=C/c2cccc([N+](=O)[O-])c2)cc1`, the EC50 is > 37.2 µM and the 50% inhibitory concentration (IC50) is > 37.2 µM.
With `c1ccc2c3csccc-3nc2c1`, the EC50 was > 200 µM and the IC50 came out at 97.7 µM.
For the compound `CCCCN(CCCC)P(=S)(OCC)OCC`, the EC50 was > 200 µM and the IC50 is > 200 µM.
`CC(C)N(C(=O)C12C3(C(=O)OC(C)(C)C)C4C5(C#N)C3C1(C(=O)OC(C)(C)C)C5C42C(=O)OC(C)(C)C)C(C)C` (stereo not given): the EC50 was > 200 µM and the 50% inhibitory concentration (IC50) amounted to 23.4 µM.
For `Cc1c([N+](=O)[O-])c(=O)oc2cc3occc(=O)c3cc12`, the EC50 is > 36.3 µM and the half-inhibitory concentration (IC50) turned out to be 18.2 µM.
For `COc1ccc2nc3c([N+](=O)[O-])ccc4c3c(c2c1)N(CCCN(C)C)C(=S)N4CCCN(C)C`, the EC50 was > 2 µM and the IC50 was 0.537 µM.
As to `Cc1nc(=O)n2c(c1C(=O)Nc1ccc(Cl)cc1)NCCC2`, the result was inactive.
Turning to `COc1cccc(N2C(=O)CC(Sc3ccccc3N)C2=O)c1` (stereo not given), the EC50 is > 200 µM and the half-inhibitory concentration (IC50) was > 200 µM.
Take `CC(C)(C)OC1=C(OC(C)(C)C)C(O)(c2ccccc2)C1=O` (stereo not given): the result was inactive.
As to `O=C(CCC(NC(=O)OCc1ccccc1)C(=O)OCc1ccccc1)Nc1ccc(OCc2ccccc2)cc1` (stereo not given), the EC50 was > 200 µM and the IC50 worked out at 126 µM.
As to `CC(C)(C)OC[C@H](O)CC#N`, the EC50 is > 200 µM and the concentration for half-maximal inhibition (IC50) was > 200 µM.
For `CC(NC(=O)C(CCCCN)NC(=O)C(N)CC(=O)O)C(=O)NC(CO)C(=O)NC(Cc1ccc(O)cc1)C(=O)NC(CO)C(=O)NC(C(=O)NC(CC(N)=O)C(=O)NC(Cc1cnc[nH]1)C(=O)O)C(C)O` (stereo not given) (H-DKASYSTNH-OH; configuration not given here), the EC50 was > 49 µM and the IC50 was > 49 µM.
In the case of `CCOc1csc([C@H]2CCC3[C@@H]4CC=C5C[C@@H](O)CC[C@]5(C)C4CC[C@@]32C)n1` (stereo not given in full), the EC50 was > 3.39 µM and the concentration for half-maximal inhibition (IC50) is > 3.39 µM.
`CCOC(=O)/C(F)=C/c1cccc([N+](=O)[O-])c1`: the EC50 is > 151 µM and the IC50 was > 151 µM.
Take `CN1C(=O)CN2CCc3ccccc3C2c2cc(Cl)ccc21` (stereo not given): the EC50 is > 200 µM and the IC50 came out at 129 µM.
`Cc1c(Cl)cccc1NC(=O)CN(CC(C)C)CC(C)C`: the EC50 was > 200 µM and the IC50 was 33.1 µM.
For the compound `CS(=O)(=O)O[C@H]1[C@H](O)c2ccccc2[C@@H]1N=[N+]=[N-]`, the EC50 was > 200 µM and the IC50 is > 200 µM.
Regarding `COC(=O)/C(=C\Nc1cccc(C)n1)S(=O)(=O)c1ccc(C)cc1`, the EC50 is > 200 µM and the IC50 worked out at 66.1 µM.
With `CC(C)(C)OC(=O)CCCCCNC(=O)CCCCCNC(=O)CCC(CN(CC(=O)OCc1ccccc1)CC(=O)OCc1ccccc1)N(CC(=O)OCc1ccccc1)CC(=O)OCc1ccccc1` (stereo not given), the outcome was inactive.
For `Cc1ccc2c(c1)C1(C)OC(CC(N)C1O)O2` (stereo not given), the outcome was inactive.
On to `O=C1OC(=O)C23CSCC12C1C=CC3O1` (stereo not given), for which the EC50 was > 417 µM and the IC50 is > 417 µM.
Consider `CC(C)CN1CC(C)C(=O)NC1=O` (stereo not given), for which the outcome was inactive.
For the compound `CCOCCCCS(=O)(=O)O`, the EC50 was > 200 µM and the 50% inhibitory concentration (IC50) is > 200 µM.
In the case of `CN(C)/C=N\c1ccnc(=O)[nH]1`, the EC50 was > 1320 µM and the 50% inhibitory concentration (IC50) is > 1320 µM.
Consider `O=S(=O)(c1ccccc1)n1c2ccc(Br)cc2c2nc3ccccc3nc21`, for which the EC50 is > 200 µM and the IC50 is > 200 µM.
For the compound `NC(=O)c1nnc2ccc(F)cc2c1N`, the EC50 was > 200 µM and the concentration for half-maximal inhibition (IC50) is 70.8 µM.
In the same order, the values of `O=C(O)CCCCCCCc1cccc(OCCOCCO)c1` are > 100 µM and > 100 µM.
In the case of `CN(Cc1ccccc1)c1cc(=O)n(C)c(=O)[nH]1`, the EC50 was > 200 µM and the IC50 is > 200 µM.
Take `CC(=O)OCC1OC(n2c(C)c(C(C)=O)c(-c3ccc(Cl)cc3)c(C#N)c2=S)C(OC(C)=O)C(OC(C)=O)C1OC(C)=O` (stereo not given): the EC50 is > 200 µM and the concentration for half-maximal inhibition (IC50) worked out at 148 µM.
In the same order, the values of `O=C(O)Cn1c(=O)[nH]c(=O)c2[nH]cnc21` are > 1200 µM and > 1200 µM.
Take `CC(C)(C)/C(O)=C\c1nc2ccc(C(F)(F)F)cc2[nH]c1=O`: the EC50 was > 200 µM and the IC50 is > 200 µM.
As to `CCN(C(=S)N[C@H](C(=O)N[C@@H](C)C(=O)OC)C(C)C)c1ccccc1`, the EC50 is 0.575 µM and the concentration for half-maximal inhibition (IC50) was 29.5 µM.
On to `C=CC1(c2ccc(OC)cc2)OCCCO1`, for which the EC50 was > 200 µM and the concentration for half-maximal inhibition (IC50) stood at 97.7 µM.
Take `Cn1cnc([N+](=O)[O-])c1SSc1c([N+](=O)[O-])ncn1C`: the EC50 is > 200 µM and the IC50 was > 200 µM.
`O=C1CCCC2=C1CC1=C(CCCC1=O)N2c1cccc([N+](=O)[O-])c1`: the EC50 was > 186 µM and the concentration for half-maximal inhibition (IC50) amounted to 170 µM.
Regarding `Cn1c(=O)c2cc(O)cnc2n(C)c1=O`, the EC50 is > 200 µM and the IC50 is > 200 µM.
Take `CCN(CC)CCN1C(=O)C(=O)N(c2cccc3ccccc23)C1=O`: the EC50 was > 200 µM and the IC50 is > 200 µM.
On to `CCOC(=O)N1CCc2cc(OC)c(OC)c3c2C1CC3=O` (stereo not given), for which the result was inactive.
With `CN1CCOC(C(NC(=O)c2ccccc2)c2ccccc2)C1=O` (stereo not given), the EC50 is > 200 µM and the IC50 is > 200 µM.
In the case of `N#CCC(=O)NC1C2CC3CC(C2)CC1C3` (stereo not given), the EC50 was > 229 µM and the IC50 came out at 34.7 µM.
As to `O=C1CCC(=O)N2CCCCN12`, the EC50 was > 407 µM and the IC50 is > 407 µM.
`CCC1c2ccccc2[C@H]2C(c3ccccc3)=NN(c3ccccc3)[C@H]2N1CC` (stereo not given in full): the EC50 was > 200 µM and the concentration for half-maximal inhibition (IC50) was 56.2 µM.
On to `CCCCSc1cc(Cc2cc(C)ccc2O)c(O)c(Cc2cc(C)ccc2O)c1`, for which the EC50 is > 200 µM and the IC50 was 10 µM.
As for `Cc1cn([C@H]2C[C@@H]3[C@@H](COC(CCCC[Se]c4ccccc4)N3O)O2)c(=O)[nH]c1=O` (stereo not given in full), the EC50 was 14.8 µM and the half-maximal inhibitory concentration (IC50) amounted to 105 µM.
For `NC(N)=NN=C(c1ccccc1)c1ccccc1`, the EC50 was > 200 µM and the 50% inhibitory concentration (IC50) was determined as 1.02 µM.
Regarding `Cc1cc(C)c(C2CC(O)C(CO)O2)cc1C` (stereo not given), the EC50 was > 200 µM and the half-inhibitory concentration (IC50) was > 200 µM.
On to `C1Cn2nnnc2N1`, for which the EC50 is > 2240 µM and the IC50 was > 2240 µM.
For `CCOC(=O)N[C@@H]1C2CC(=O)C(O2)[C@@H]1OC` (stereo not given in full), the result was inactive.
In the case of `O=C(/C=C/c1ccc(OCCCOc2ccc(/C=C/C(=O)c3ccccc3)cc2)cc1)c1ccccc1`, the EC50 is > 10.7 µM and the 50% inhibitory concentration (IC50) is > 10.7 µM.
With `CCC[CH2][Ge]([CH2]CCC)([CH2]CCC)[O]C(=O)C(OC)c1ccccc1` (stereo not given), the EC50 is > 151 µM and the IC50 came to 7.41 µM.
On to `Cc1ccccc1N=Nc1c(-c2ccccc2)nn(C(=O)CC(=O)Nc2cccc(Cl)c2)c1-c1ccccc1`, for which the EC50 was > 25.1 µM and the IC50 is > 25.1 µM.
`COC(=O)/C=C1\C(CO[Si](C)(C)C(C)(C)C)OC(n2cc(C)c(=O)[nH]c2=O)C1O[Si](C)(C)C(C)(C)C` (stereo not given): the EC50 is > 200 µM and the IC50 turned out to be 7.08 µM.
In the same order, the values of `COP12(OC)NC(=O)OC1(C(F)(F)F)c1ccccc1O2` (stereo not given) are > 776 µM and 537 µM.
With `O=S(=O)(O)c1cccc2c1CN1CCCCC1C2` (stereo not given), the EC50 was > 200 µM and the IC50 is > 200 µM.
Turning to `N#C/C(N)=C(\C#N)N=CNc1ccc(N)cc1`, the EC50 was > 200 µM and the concentration for half-maximal inhibition (IC50) is > 100 µM.
With `O=C1CN(CCCN2CCOCC2)CC(=O)N2CCCCN12`, the EC50 was > 200 µM and the concentration for half-maximal inhibition (IC50) is > 200 µM.
On to `CC1=CC2=C(C#N)C(=O)OC2(C)C(c2ccccc2)C1` (stereo not given), for which the EC50 was > 200 µM and the IC50 came to 117 µM.
In the same order, the values of `CN1CCC2CC1c1ccn(C)c1C2=O` (stereo not given) are > 1230 µM and > 1230 µM.
As for `C1=CC2C=CC(C=C1)P2c1ccccc1` (stereo not given), the result was inactive.
Regarding `COC(=O)CCN(CCC(=O)OC)C1CC1`, the EC50 was > 200 µM and the concentration for half-maximal inhibition (IC50) is > 200 µM.
Consider `CCOC(=O)NC(Nc1ccc(S(=O)(=O)Nc2ncccn2)cc1)(C(=O)OCC)C(F)(F)F` (stereo not given), for which the EC50 is > 200 µM and the IC50 was > 200 µM.
For `CN(NC(=O)/C(=C\c1ccccc1Cl)NC(=O)c1ccccc1)c1cn[nH]c(=O)c1Cl`, the EC50 was > 100 µM and the IC50 is 52.5 µM.
Turning to `CC(C)C(NC(=O)C(N)CCC(=O)O)C(=O)O` (stereo not drawn) (H-Glu-Val-OH; configuration not given here), the outcome was inactive.
As for `COc1ccc2c(c1)C(=O)C13CC(C(=O)N(C)C)C(OC(C)=O)(CCC21)C3` (stereo not given), the EC50 is > 95.5 µM and the 50% inhibitory concentration (IC50) is > 95.5 µM.
In the case of `COc1ccc(N=Nc2c(C)c(C#N)c(=S)n(C3OC(COC(C)=O)C(OC(C)=O)C(OC(C)=O)C3OC(C)=O)c2-c2ccccc2)cc1` (stereo not given), the EC50 was > 200 µM and the IC50 was 126 µM.
Regarding `CSc1ccc(NC(=O)C2c3[nH]c4ccccc4c3C3CCC(C(C)(C)C)CC3C2C(=O)O)cc1` (stereo not given), the EC50 is > 7.76 µM and the IC50 was > 7.76 µM.
On to `CO[C@]1(c2ccc([N+](=O)[O-])cc2)Oc2ccccc2C(=O)[C@@]1(Nc1ccc(C=O)cc1)OC`, for which the EC50 is > 200 µM and the IC50 is 174 µM.
In the same order, the values of `Cc1ccc(C2SCC(=O)N2c2ccc(-c3ccc(-n4c(-c5ccccc5)nc5ccccc5c4=O)cc3)cc2)cc1` (stereo not given) are > 191 µM and 35.5 µM.
Turning to `Cc1[nH]c(=O)[nH]c(=O)c1CN1CCCCC1`, the EC50 is > 6.46 µM and the half-inhibitory concentration (IC50) is > 6.46 µM.
On to `Cc1cc(=O)oc2c(C)c(O)ccc12`, for which the EC50 was > 138 µM and the half-maximal inhibitory concentration (IC50) was found to be 97.7 µM.
In the case of `O=C1CC2(CCC(O)(c3cccs3)C(C(=O)c3cccs3)C2)C(=O)c2ccccc2N1` (stereo not given), the EC50 is > 200 µM and the IC50 is > 200 µM.
Take `CN(N=O)C(=O)NC(CCCCNC(=O)OCc1ccccc1)C(=O)OCc1ccccc1` (stereo not given): the EC50 was > 21.9 µM and the half-inhibitory concentration (IC50) was > 21.9 µM.

The term EC50 denotes the concentration giving half of the maximal effect. As usually defined, the IC50 is the point on the concentration scale where inhibition reaches its midpoint. Low readings indicate inhibition by little substance, high ones a need for much substance.
